Results from US20240190910A1, “HEMI-CITRATE SALTS OF GABA-A POSITIVE […] AND CRYSTALLINE FORM THEREOF” (priority 2021, published 2024).
Values joined by “and” are separate entries in the source; they are usually repeats but may differ in a detail not shown here. Identical values can stand only once. Counter-ions that a name gives are not always drawn. Like-named read-outs stand apart in the source and are kept apart here.

Key:
Type in all cases: physicochemical
[1] = Dynamic vapor sorption (DVS) hygroscopicity
Protocol: DVS was measured via a SMS (Surface Measurement System) DVS Intrinsic. Parameters for DVS data collection were as follows:
A second endotherm (having an onset at 121.5° C.) associated with melting of the dehydrated phase (ΔH: 15.20 J/g) was followed by a rapid decomposition as temperature continued to increase (FIG. 3). Because of the low onset of dehydration, the DVS was measured at both room temperature and at 40° C. to predict the stability of the crystalline phase at 40° C. […] A 1.5% weight loss was observed between 95% and 20% RH, and a 2.9% weight loss was observed between 20% and 0% RH, for a total loss of […] across the entire cycle. […] After measuring the hygroscopicity by DVS, an XRPD pattern was collected for comparison to the original material and found to correspond well to the pattern of the room temperature sample post-DVS temperature cycle (FIG. 6).

[2] = Compaction characterization by Heckel analysis (yield pressure, strain rate sensitivity, crushing strength); conditions: for Yield pressure Fast (300 mm/s) / Yield pressure Slow (0.1 mm/s): summary of runs (± spread); for Strain rate sensitivity: yield pressure at 300 mm/s compared to 0.1 mm/s
Protocol: The aim of the Heckel test is to compress the material under controlled conditions to derive the yield pressure of the bulk material. A known weight of material is compressed within a 10 mm diameter die with flat faced punches moving at a set speed. The force on the punch is accurately measured at frequent intervals whilst the displacement of the punches is used to calculate the volume of the powder. The yield pressure is calculated at slow and fast punch speeds to assess the time-dependent component to deformation of the material.
A known weight of pure drug is compacted to theoretical zero porosity using 10 mm diameter flat faced punches. The Compaction Simulator was used under the following conditions:
During compression the location of the punch tips are accurately determined, and the force measured by load cells producing a record of the primary compression parameters. Temperature and humidity were monitored at intervals during the test.
The data were analyzed by the Compaction Analysis software program to generate values for yield pressure (Py) using the Heckel equation:
where • D=the relative density of the compact; • P=Pressure applied; and • K=Gradient of the line in the linear region; [Reference: R. W. Heckel. Trans. Metall. Soc. AIME 221 (1961)1001-1008].
For some materials, the deformation characteristics change with rate of applied force. This can be estimated by calculating the Strain Rate Sensitivity. The yield pressure at high speed compression is compared to that at slow speed using the following equation: […]

[3] = True density by helium pycnometry
Protocol: The equipment used was a Micromeritics AccuPyc II 1340, and the test parameters are set forth below. Testing was performed in duplicate (assuming target <2% variability achieved).
The true density of the material was determined by Helium Pycnometry.
The equipment used in this study was a Micromeritics AccuPyc II 1340, and the test parameters are the same as described in Example 10. The testing was performed in duplicate (assuming target <2% variability achieved).

[4] = Gelation experiments in aqueous media; conditions: for concentration at which rapidly gelled: 0.1 N HCl media; for gelation in water or pH 7.4 buffer: 0.5-10 mg/mL
Protocol: To confirm these findings, controlled experiments were conducted where the free base, mono-citrate, and hemi-citrate salts of Compound 1 were dissolved in aqueous media at concentrations between 0.5 mg/mL and 10 mg/mL. The dissolution experiments were performed in either 0.1 N HCl, water, or pH 7.4 buffer as aqueous media.

[5] = Tablet chemical stability: C17 epimer generation on storage at 40° C./75% RH; conditions: tablet dosage form, sealed bottle, 1 or 2 months, compared with mono-citrate salt
Protocol: FIG. 12 is a graph comparing the amount of the C17 epimer, a degradation product of Compound 1, over time for a tablet formulation containing Compound 1 hemi-citrate salt (Form I; left column in both “1 month” and “2 months”) or Compound 1 mono-citrate salt (Form A; right column in both “1 month” and “2 months”) in sealed bottles stored at 40° C./75% RH).

[6] = Tablet dissolution: percent release of Compound 1 from acidified tablet formulation
Protocol: FIG. 13 is a graph showing percent release of Compound 1 over time for an acidified tablet formulation containing Compound 1 hemi-citrate salt Form I. Tablets were used initially or maintained at 40° C./75% RH for 2 weeks, 1 month, or 2 months.
FIG. 14 is a graph showing percent release of Compound 1 over time for an acidified tablet formulation containing Compound 1 mono-citrate salt (Form A). Tablets were used initially or stored at 40° C./75% RH for 2 weeks, 1 month, or 2 months.

[7] = fast speed 300 mm/s, individual runs, 21.7° C./38.9% RH
[8] = slow speed 0.1 mm/s, individual runs, 21.6° C./37.1% RH

## COC[C@@]1(O)CC[C@@]2(C)[C@@H](CC[C@@H]3[C@@H]2CC[C@]2(C)[C@@H](C(=O)Cn4ccnc4)CC[C@@H]32)C1 [Compound 1 hemi-citrate salt Form I]
[1]; 40° C.
  total loss (DVS): 5.4%
  water absorption from 20% to 80% RH (DVS): 1.8%
  water lost between 95% and 20% RH (DVS): 2.2%
  water lost from 20% to 0% RH (DVS): 3.2%
[1]; DVS at room temperature and 40° C.
  hygroscopicity: slightly hygroscopic
[1]; room temperature
  total loss across the entire cycle (DVS): 4.3%
  water uptake between 20% and 80% RH (DVS): 1.2%
  weight loss between 20% and 0% RH (DVS): 2.9%
  weight loss between 95% and 20% RH (DVS): 1.5%
[2]
  Compact observations: Ok and Chipped and Capped
  Ejection Force: 0.416 kN and 0.445 kN and 0.479 kN and 0.747 kN and 0.736 kN and 0.745 kN
  Peak Force of Upper punch: 20.607 kN and 21.683 kN and 19.936 kN and 14.028 kN and 13.909 kN and 14.571 kN
  Yield Pressure: 67.480 MPa and 73.595 MPa and 67.397 MPa and 83.127 MPa and 80.626 MPa and 89.401 MPa
  Strain rate sensitivity: 21.4%
[2]; fast speed 300 mm/s
  Yield pressure Fast (300 mm/s): 84.38 MPa (±4.52)
[2]; slow speed 0.1 mm/s
  Yield pressure Slow (0.1 mm/s): 69.49 MPa (±3.55)
[3]
  true density mean: 1.2621 g/mL

## COC[C@@]1(O)CC[C@@]2(C)[C@@H](CC[C@@H]3[C@@H]2CC[C@]2(C)[C@@H](C(=O)Cn4ccnc4)CC[C@@H]32)C1 [Compound 1 hemi-citrate salt]
[4]; 0.1 N HCl, water, or pH 7.4 buffer, concentrations up to 10 mg/mL
  gelation in aqueous media: did not gel
[5]
  degradation product (C17-epimer) generated: less degradation product
[6]; compared with Compound 1 mono-citrate salt
  susceptibility to dissolution slow-down of the tablet: less susceptible
[6]; initial and tablet stored in open dish at 40° C./75% RH for 2 weeks, 1 month, 2 months, compared with mono-citrate salt
  release of Compound 1 from an acidified formulation over time: greater

## COC[C@@]1(O)CC[C@@]2(C)[C@@H](CC[C@@H]3[C@@H]2CC[C@]2(C)[C@@H](C(=O)Cn4ccnc4)CC[C@@H]32)C1.O=C(O)CC(O)(CC(=O)O)C(=O)O [Compound 1 mono-citrate salt Form A]
[2]; [7]
  Compact observations: Laminated
  Compact strength: 9.75 Kiloponds and 12.38 Kiloponds and 5.09 Kiloponds
  Ejection Force: 0.740 kN and 0.649 kN and 0.719 kN
  Peak Force of Upper punch: 14.137 kN and 14.545 kN and 14.488 kN
  Yield Pressure: 105.169 MPa and 111.204 MPa and 110.483 MPa
[2]; [8]
  Compact observations: Ok
  Compact strength: 15.99 Kiloponds and 17.94 Kiloponds and 15.97 Kiloponds and 16.04 Kiloponds
  Ejection Force: 0.603 kN and 0.426 kN and 0.518 kN and 0.462 kN
  Peak Force of Upper punch: 18.227 kN and 22.470 kN and 20.499 kN and 22.020 kN
  Yield Pressure: 70.114 MPa and 92.323 MPa and 85.677 MPa and 90.406 MPa
[2]; fast speed 300 mm/s
  Yield pressure Fast (300 mm/s): 108.95 MPa (±3.30)
[2]; slow speed 0.1 mm/s
  Yield pressure Slow (0.1 mm/s): 84.63 MPa (±10.07)
[2]
  Strain rate sensitivity: 28.7%
[3]
  true density mean: 1.2666 g/mL

## COC[C@@]1(O)CC[C@@]2(C)[C@@H](CC[C@@H]3[C@@H]2CC[C@]2(C)[C@@H](C(=O)Cn4ccnc4)CC[C@@H]32)C1.O=C(O)CC(O)(CC(=O)O)C(=O)O [Compound 1 mono-citrate salt]
[4]
  concentration at which rapidly gelled: 5000 µg/mL
  gelation in water or pH 7.4 buffer: did not gel

## COC[C@@]1(O)CC[C@@]2(C)[C@@H](CC[C@@H]3[C@@H]2CC[C@]2(C)[C@@H](C(=O)Cn4ccnc4)CC[C@@H]32)C1 [Compound 1, 3α-hydroxy-3β-methoxymethyl-21-(1′-imidazolyl)-5α-pregnan-20-one]
[4]
  concentration at which rapidly gelled: 1000 µg/mL
  gelation in water or pH 7.4 buffer: did not gel
